The test system of one data set is SH-SY-5Y cells. As to the kind of experiment: cells. It is filed as cell-based. Particulars: for % Inhibition of Cell Growth with Aβ1-42 / % Inhibition of Cell Growth without Aβ1-42: compound 1 mM 24 h; for % Inhibition of Cell Growth with Aβ1-42: then 20 μM Aβ1-42 24 h. The procedure: (§1) Cytotoxicity Studies: Protection against β-amyloid 1-42 cytotoxicity in SH-SY-5Y cells was measured by standard MTT assays. SH-SY-5Y cells were seeded in 96-well plates at the density of 30,000 cells/well. After overnight incubation, the cells were exposed to GSH or Ψ-GSH at a concentration of 1 mM for 24 h at 37° C. After 24 h of incubation, the drug-containing medium was replaced with media containing 20 μM β-amyloid 1-42 peptide and the incubation was allowed to continue for additional 24 hours after the addition of the drugs. At the end of the incubation, 20 μL of MTT stock solution (5 mg/mL) was added to each well and incubated for 3 h at 37° C. The MTT reaction medium was discarded and the purple-blue MTT formazan crystals were dissolved by the addition of 100 μL of 0.1 N HCl in isopropanol. The optical density (OD), a reflection mitochondrial function of the viable cells, was read directly with a microplate reader (BioTek SynergyHT, VT, USA) at 580 nm and a reference wavelength of 680 nm. Concentration response graphs were generated for each drug using GraphPad Prism software (GraphPad Software, Inc., San Diego, Calif., USA). Results are expressed as mean percent inhibition of β-amyloid toxicity with the standard error of the mean. In another set of experiments, cells were preincubated with a glyoxalase I inhibitor, S-(p-bromobenzylglutathione) (1 mM) for 24 hours before addition of βamyloid1-42 peptide (20 μM).
as §1, with “Protection” for “Cytotoxicity Studies: Protection”, “against β-amyloid^1-42” for “against β-amyloid 1-42”, “cells/well. […]” for “cells/well. After overnight incubation, the cells were exposed to GSH or Ψ-GSH at a concentration of 1 mM for 24 h at 37° C.”, “μM β-amyloid^1-42” for “μM β-amyloid 1-42”, “20 μl,” for “20 μL”, “mean.” for “mean. In another set of experiments, cells were preincubated with a glyoxalase I inhibitor, S-(p-bromobenzylglutathione) (1 mM) for 24 hours before addition of βamyloid1-42 peptide (20 μM).”

A further data set relates to Swiss Webster Mice. As to the kind of experiment: ACP (acetaminophen) overdose rescue and effects on normal liver. Particulars: 370 mg/kg ACP + NAC 7.35 mmol/kg. It is filed as in vivo. On the procedure:
36-Male Swiss Webster Mice (HSD) were fasted over-night and then brought to the lab at 8:00 am the following day and weighed. Food was kept out of the cages until after the final drug injection. Mice were divided into treatment groups as below in Table 2.
Thirty minutes post overdose with 370 mg/kg ACP, the following were evaluated for the groups in Table 2:
N-acetylcysteine (NAC) at 7.35 mmol/kg;
Ψ-GSH at three different doses, 3.67, 2.45 and 1.22 mmol/kg; and
examine effects of Ψ-GSH on normal liver at rescue doses.

A further data set deals with T1, yeast glyoxalase I (Saccharomyces cerevisiae, UniProt P50107).
T1 construct: purchased Sigma
T1 sequence (P50107 1-326): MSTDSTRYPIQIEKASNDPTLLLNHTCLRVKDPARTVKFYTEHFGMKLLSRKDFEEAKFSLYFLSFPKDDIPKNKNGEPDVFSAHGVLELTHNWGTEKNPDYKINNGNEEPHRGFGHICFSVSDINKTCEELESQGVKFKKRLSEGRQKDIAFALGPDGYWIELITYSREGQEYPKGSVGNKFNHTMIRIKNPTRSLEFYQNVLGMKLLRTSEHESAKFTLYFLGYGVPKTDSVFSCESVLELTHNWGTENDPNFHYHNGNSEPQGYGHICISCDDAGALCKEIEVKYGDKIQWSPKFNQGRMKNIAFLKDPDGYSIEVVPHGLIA
As to the kind of experiment: Glyoxalase I enzyme kinetics assay. It is filed as biochemical. Conditions: yeast Glx-I, MG, 30° C., phosphate buffer pH 6.6. The procedure: Glyoxalase I Enzyme Kinetics Assay. The glutathione analog, Ψ-GSH and asparthione were examined for their ability to act as substrates for the yeast glyoxalase I mediated […] of MG. The commercial 40% methylglyoxal solution was distilled to remove polymerization products. Enzyme assays were performed (30° C., 0.05 M phosphate buffer (pH 6.6)) using a thermostated Beckman DU® 7400 spectrophotometer. Fresh solutions of GSH, Ψ-GSH and asparthione were prepared on the day of the assays with distilled, deionized water. In each assay, the cell contained a total volume of 3.0 mL which was no more than 6.0 mM with respect to methylglyoxal and 1.3 mM with respect to GSH or its analogs. […] Data were analyzed utilizing an Enzyme kinetics module of Sigmaplot 9.0 from Systat Software Inc.

Usually viability stands for the share of living cells, or the viability signal relative to a control. For the compound `N[C@@H](CCC(=O)N[C@@H](CSCc1ccc(Br)cc1)C(=O)NCC(=O)O)C(=O)O` [GSBB, S-p-bromobenzylglutathione, reference compound], the cell death in the data set on SH-SY-5Y cells (1 mM compound alone, SH-SY-5Y) is 10%. Moreover, in the data set with SH-SY-5Y cells (Homo sapiens, SH-SY5Y, Aβ in combination with 1 mM GSBB, read-out: Percentage cell viability), the viability at 1000 µM turned out to be 23.6%.

With N-acetyl-γ-Gla-Cys-Gly-OH [IV], in the data set with SH-SY-5Y cells (SH-SY-5Y), the “% Inhibition of Cell Growth with Aβ1-42” value was found to be 3% and the “% Inhibition of Cell Growth without Aβ1-42” value was determined as 0%. “HCl•γ-Gla[-Cys-Gly-OtBu]-OtBu [Compound VIII]”: in the data set with SH-SY-5Y cells (SH-SY-5Y), the “% Inhibition of Cell Growth with Aβ1-42” value was 50% and the “% Inhibition of Cell Growth without Aβ1-42” value is given as 1%. In the case of γ-Glo-Cys-Gly-OH [II], in the data set on SH-SY-5Y cells (SH-SY-5Y), the “% Inhibition of Cell Growth with Aβ1-42” value was 56% and the “% Inhibition of Cell Growth without Aβ1-42” value worked out at 1%. On to γ-Glt-Cys-Gly-OH [III], for which, in the data set on SH-SY-5Y cells (SH-SY-5Y), the “% Inhibition of Cell Growth with Aβ1-42” value was found to be 55% and the “% Inhibition of Cell Growth without Aβ1-42” value came out at 2%.

Consider “Boc-γ-Gla(OtBu)-Cys-Gly-OtBu [Compound VI]”, for which, in the data set on SH-SY-5Y cells (SH-SY-5Y), the “% Inhibition of Cell Growth with Aβ1-42” value amounted to 18% and the “% Inhibition of Cell Growth without Aβ1-42” value is recorded as 2%.

For `CC(=O)N[C@@H](CS)C(=O)O` [NAC, N-acetylcysteine, reference compound], the “death of animals in the group” value in the data set with Swiss Webster Mice is recorded as 50%.

Boc-γ-Gla-Cys-Gly-OH [Compound V]: in the data set with SH-SY-5Y cells (SH-SY-5Y), the “% Inhibition of Cell Growth with Aβ1-42” value is 10% and the “% Inhibition of Cell Growth without Aβ1-42” value worked out at 1%. On to “Boc-γ-Gla[-Cys(StBu)-Gly-OtBu]-OtBu [Compound 7]”, for which, in the data set with SH-SY-5Y cells (SH-SY-5Y), the “% Inhibition of Cell Growth with Aβ1-42” value is on record as 41% and the “% Inhibition of Cell Growth without Aβ1-42” value was found to be 0%. Consider [γ-Gla-Cys-Gly-OH]2 [Compound XI], for which, in the data set on SH-SY-5Y cells (SH-SY-5Y), the “% Inhibition of Cell Growth with Aβ1-42” value came to 24% and the “% Inhibition of Cell Growth without Aβ1-42” value came out at 1%. For “HCl•γ-Gla[Cys-Gly-OiPr]-OiPr [Compound IX]”, in that order: 31% and 0%. With `N[C@@H](CC(=O)N[C@@H](CS)C(=O)NCC(=O)O)C(=O)O` [asparthione], the “slope for initial velocity vs. substrate concentration” value at yeast glyoxalase I is 0.0132±0.0136. Turning to “HCl•γ-Gla[Cys-Gly-OCyP]-OcyP [Compound X]”, in the data set on SH-SY-5Y cells (SH-SY-5Y), the “% Inhibition of Cell Growth with Aβ1-42” value is reported as 27% and the “% Inhibition of Cell Growth without Aβ1-42” value came to 0%.
